Drawing on patent publication US4001418A, “1'-Substituted-thioxanthene-9-spiro-4'-piperidine derivatives and the 10-oxides and 10,10-dioxides thereof” (priority 1974, dated 1977), this text covers LD50 for 4 compounds.

The nature of one series: oral LD50 in mice. As to conditions: mouse, in vivo.
The next series in a line: intravenous LD50. The following applies: mouse, in vivo. On the procedure: The corresponding intravenous LD50 is 30 mg./kg. Other LD50 values for compounds of the invention when dosed intravenously are as follows: […]

As usually defined, the LD50 is the dose expected to kill half of the subjects tested. On to `CN1CCC2(CC1)c1ccccc1Sc1c(O)cccc12` [4-hydroxy-1'-methylthioxanthene-9-spiro-4'-piperidine], for which the LD50 is more than 500 mg/kg in the series “oral LD50 in mice” and 30 mg/kg in “intravenous LD50” (mice, read-out: intravenous LD50).

Turning to `C=CCN1CCC2(CC1)c1ccccc1Sc1c(O)cccc12` [Allyl 4-OH H H H S, 4-hydroxy-1'-allylthioxanthene-9-spiro-4'-piperidine], in “intravenous LD50” (table 1, read-out: LD50), the LD50 was 43 mg/kg.

Take `CC(=O)Oc1cccc2c1Sc1cc(Cl)ccc1C21CCN(C)CC1` [Me 4-OAc H 6-Cl H S]: the LD50 in “intravenous LD50” (table 1, read-out: LD50) is more than 50 mg/kg.

As for `CCCN1CCC2(CC1)c1ccccc1Sc1c(O)cccc12` [n-Pr 4-OH H H H S], the LD50 in the series “intravenous LD50” (table 1, read-out: LD50) was 35 mg/kg.
